Columns and labels:
[1] = Metabolite characterization by LC/MS/MS in human plasma, urine, and feces; details: human plasma, urine, feces; LC/MS/MS
Protocol: The remaining eluate stream of 0.16 mL/min from the HPLC runs was diverted to the inlet of the mass spectrometer. The samples were analyzed using a heated electrospray ionization probe. Full-scan positive ion MS data were collected using Finnigan Exactive (MS^1) or Q-Exactive (MS^1 and MS^2) mass spectrometers (Thermo Fisher Scientific Inc.) Exact conditions are described in the Online Resource 3.
Finnigan Exactive or Q-Exactive mass spectrometers (Thermo Fisher Scientific Inc., San Jose, CA) were used to collect full scan MS^1 and MS^2 data.

[2] = Metabolite profiling of plasma (HPLC-radiochromatography); type: in vivo, human; details: % of TRA
Protocol: For each subject, a 0–24 h pooled plasma sample was prepared according to the scheme outlined in the literature. In addition, several pooled plasma samples across all subjects were prepared at these time points: 5, 10, 12, […], and 48 h, and every 24 h thereafter until 240 h.
All pooled 0–24, 5, 10, 12, and 24 h plasma samples were processed as follows. […] The samples were vortexed for 30 min and centrifuged at 4500g at 4 °C for 6 min. The supernatants were transferred into new polypropylene tubes and kept on ice. The resulting plasma protein pellets were extracted twice to ensure good recovery and the extracts were combined. The combined extracts were loaded onto Ostro sample preparation plates (Waters Corporation, Milford, MA, USA), dried, eluted with 0.2 mL of cold acetonitrile, and all eluates were collected and evaporated under nitrogen (TurboVap LV; Caliper Life Sciences, Hopkinton, MA, USA). The dry residues were reconstituted in 0.1 mL of methanol, and a 0.005-mL aliquot was removed for determination of radioactivity. The remainder of the supernatants were transferred to high-performance liquid chromatography (HPLC) vials and stored at −80 °C until analysis.
Pooled post-24-h plasma samples were extracted using a slightly modified procedure. […] Appropriate volumes of formic acid were added to achieve a final concentration of 1%. Then, the samples were warmed to 37 °C and loaded to preconditioned Oasis HLB cartridges (Waters Corporation, Milford, MA, USA). These columns were then washed with water, dried under vacuum, and eluted with methanol. The eluates were collected and evaporated under nitrogen. The dry residues were reconstituted in 0.1 mL of methanol, and a 0.005-mL aliquot was removed for determination of radioactivity. The remainder of the supernatants were transferred to HPLC vials and stored at −80 °C until analysis.
(§1) A Finnigan Surveyor HPLC system (Thermo Fisher Scientific Inc., San Jose, CA, USA), consisting of an LC pump plus an autosampler and a UV–Vis plus detector, was used mostly for profiling (except the post-24-h plasma samples, which were analyzed using a Dionex HPLC system). A Phenomenex® Gemini® C18, 5-μm, 3.0 × 100-mm column (Phenomenex Inc., Torrance, CA, USA) was used along with a C-12 guard column (4 × 2 mm). LC conditions were as follows: solvent A was 10 mM ammonium bicarbonate in water (pH 10.0) and solvent B was 100% methanol and the flow rate was 0.8 mL/min. The following gradient was employed (B%): 0–5 min (20%), 32 min (42%), 33 min (60%), 55 min (70%), 56–60 min (95%), and 62–70 min (20%).
(§2) Reconstituted solvent extracts (0.050–0.10 mL) of plasma, urine, or feces were injected onto the HPLC column. The post-column eluate was split after UV detection into two streams (0.64 and 0.16 mL/min). The 0.64-mL stream was diverted to a fraction collector (Gilson FX 204; Gilson Medical Electronics, Middleton, WI, USA) to be collected in 96-well plates at 0.16 min/well (ScintiPlates; PerkinElmer Life Sciences, Shelton, CT, USA), and the 0.16-mL stream was directed to the mass spectrometer. The solvent in the 96-well plates was removed at 40 °C using a Genevac evaporator (Genevac, Inc., Stone Ridge, NY, USA).
(§3) The radioactivity counts per minute (CPM) in each well was determined using a MicroBeta scintillation counter (PerkinElmer Life and Analytical Sciences). The resulting CPM vs. time data were processed using Excel (Microsoft Corporation, Seattle, WA, USA). The CPM in each well was background-subtracted (using the average CPM values of the blank region of the HPLC run). Radiochromatographic profiles were obtained by plotting the resulting net CPM values against time after injection. Radioactive peaks in the chromatographic profiles were identified, and the radioactivity in each peak was summed and reported as a percentage of TRA in the HPLC run.

BCR–ABL [3] = assay: In vitro kinase activity screen against BCR–ABL (data not shown); type: biochemical
BCR–ABL [4] = target: T1, BCR–ABL (Homo sapiens, UniProt P00519+P11274); assay: In vitro cellular activity screen against BCR–ABL (data not shown); type: cell-based
T1 sequence (P00519 229-512 limits assumed): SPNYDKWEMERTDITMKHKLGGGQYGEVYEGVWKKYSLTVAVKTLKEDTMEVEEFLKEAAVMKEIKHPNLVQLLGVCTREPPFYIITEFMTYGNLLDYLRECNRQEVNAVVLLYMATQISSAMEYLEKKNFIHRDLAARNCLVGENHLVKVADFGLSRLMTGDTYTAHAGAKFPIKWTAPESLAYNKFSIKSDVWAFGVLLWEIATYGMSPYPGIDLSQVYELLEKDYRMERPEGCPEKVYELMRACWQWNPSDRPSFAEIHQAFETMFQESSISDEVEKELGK

[5] = Plasma pharmacokinetics of TRA, ponatinib and metabolites after a single oral 45-mg [14C]ponatinib dose; details: for time postdose at which C max / maximal levels in plasma were observed: single oral 45-mg dose, M23 by radiochromatography; for concentration at 144 h: oral
Protocol: The subject release criterion was defined as follows: the combined urine and fecal radioactivity excretion for two consecutive days should fall below 1% of the dose administered.
Detailed procedures on sample collection, storage, and shipment are described in Online Resource 1. […] Fecal homogenates were prepared by adding water (four times the feces weight) and homogenizing.
TRA analysis was carried out at ABC Laboratories. The radioactivity in plasma (duplicate per time point) and urine samples (triplicate per time point) was quantitated by direct counting in a Beckman LS6000SC or LS6500 liquid scintillation counter (PerkinElmer Life and Analytical Sciences, Boston, MA, USA). Whole blood (duplicate per time point) and fecal homogenate (triplicate per time point) samples were oxidized, and the resultant ^14CO2 was trapped in Carbosorb (Calgon Carbon Corporation, Pittsburgh, PA, USA) in combination with Permafluor, followed by liquid scintillation counting to determine the radioactivity. Individual samples were counted for 5 min for whole blood and fecal matrices, and 10 min for plasma and urine matrices. Predose blood, plasma, urine, and feces samples served as respective control samples to determine and subtract the background radioactivity in the analysis.
M14 was quantitated using a different LC/MS/MS method (Online Resource 2). The pharmacokinetic analysis was carried out using WinNonlin® v6.4 (Pharsight Corp., Mountain View, CA, USA).
Aliquots of 30 µl of calibration standards, quality controls, and incurred plasma samples were transferred into a 96-well plate. Then 150 µl of ice-cold acetonitrile containing 50 ng/ml of AP30376 (d6-AP24600, internal standard) were added. The 96-well plate was vortexed for 10 min and then centrifuged at 4750 rpm for 20 min at 4°C. 100 µl aliquots of the supernatants were transferred into another 96-well plate and the samples were analyzed by liquid chromatography tandem mass spectrometry.

[6] = Metabolite profiling of urine (HPLC-radiochromatography); type: in vivo, human; details: 0–72 h pool
Protocol: Predose and 0–72-h urine samples (grand pool of all six subjects) were prepared. Urine samples (5 mL) were centrifuged, the supernatant was transferred to a 15-mL polypropylene tube and placed on ice; the residues were extracted with 1 mL of methanol and the methanol extracts were added to the supernatants. The combined extracts were evaporated under nitrogen and reconstituted in 0.2 mL of methanol. A 0.010-mL aliquot of the reconstituted solution was removed for determination of radioactivity, and the remainder was transferred to HPLC vials and stored at −80 °C.
as §1, §2, §3

Row | Matrix (in which the metabolite was found) [1] | % Distribution in plasma ([2]; 0–24 h pooled plasma) [%] | % Distribution in plasma ([2]; 10 h pooled plasma) [%] | % Distribution in plasma ([2]; 12 h pooled plasma) [%] | % Distribution in plasma ([2]; 36 h pooled plasma) [%] | activity against BCR–ABL, kinase screen (BCR–ABL [3]) | activity against BCR–ABL, cellular activity screen (BCR–ABL [4]) | time postdose at which C max / maximal levels in plasma were observed ([5]; human plasma) [h] | concentration at 144 h ([5]; male, human, plasma, 45 mg) [nM] | Structure (SMILES) | % Distribution in plasma ([2]; 5 h pooled plasma) | % Distribution in plasma ([2]; 48 h pooled plasma) | % Distribution in plasma ([2]; 72 h pooled plasma) | % Distribution in plasma ([2]; 96 h pooled plasma) | also measured
1 | P, U, F | 7 | 3.4 | 2.4 | 3.9 | inactive | inactive | 36 | < 3 | Cc1ccc(C(=O)Nc2ccc(C(=O)O)c(C(F)(F)F)c2)cc1C#Cc1cnc2cccnn12 [M23, 4-(3-(imidazo[1,2-b]pyridazin-3-ylethynyl)-4-methylbenzamido)-2-(trifluoromethyl)benzoic acid] | – (“–” values less than 0.5% are not reported) | 5.4% | 10.7% | 6.0% | –
2 | P, U | 14.9 | 10.8 | 12.8 | 2.4 | inactive | inactive | 2 to 12 | < 2.4 | Cc1ccc(C(=O)O)cc1C#Cc1cnc2cccnn12 [M14, 3-(imidazo[1,2-b]pyridazin-3-ylethynyl)-4-methylbenzoic acid] | 29.0% | – (“–” values less than 0.5% are not reported) | – (“–” values less than 0.5% are not reported) | – (“–” values less than 0.5% are not reported) | % of total radioactive dose [6]: 0.3%; % Distribution in matrix ([6]; % of urinary TRA): 5.6%; plasma level at 144 h postdose ([5]; human plasma, 144 h postdose): at or below detectable limits; AUC(0-inf) ([5]; male, human, plasma, po, 45 mg): 0.181 µM·h; AUC(0-t) ([5]; male, human, plasma, po, 45 mg): 0.169 µM·h; Cmax ([5]; male, human, plasma, po, 45 mg): 5 nM; Tmax ([5]; male, human, plasma, po, 45 mg): 5 h; half-life ([5]; male, human, plasma, po, 45 mg): 33.7 h
